# Data from US8076487B2, “Pyridone derivative and herbicide” (Kumiai Chemical Industry Co., Ltd., priority 2006, dated 2011).
# Columns and labels:
# Type in all cases: in vivo
# [1] = system: barnyardgrass (Echinochloa crus-galli (L.) P. Beauv. var. crus-galli); test: Test Example 2: herbicidal effect by soil application to upland field; settings: soil surface spray, upland field soil, 1,000 g active ingredient per hectare, 21st day after application
# In short: (§1)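 Pots of field soil, seeds sown and soil-covered; wettable powder diluted in water sprayed on soil at 1,000 g a.i./ha (1,000 L/ha). Greenhouse-grown; herbicidal effect rated per standard at 21 days post-application.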
# [2] = system: slender amaranth (Amaranthus viridis L.); test: as above; settings: soil surface spray, upland field soil, 1,000 g active ingredient per hectare, 21st day after application
# In short: as §1
# [3] = system: green foxtail (Setaria viridis (L.) P. Beauv.); test: as above; settings: soil surface spray, upland field soil, 1,000 g active ingredient per hectare, 21st day after application
# In short: as §1
# [4] = system: velvetleaf (Abutilon theophrasti medicus); test: as above; settings: soil surface spray, upland field soil, 1,000 g active ingredient per hectare, 21st day after application
# In short: as §1
# [5] = system: barnyardgrass (Echinochloa crus-galli (L.) P. Beauv. var. crus-galli); test: Test Example 3: herbicidal effect by application to upland field (foliage treatment); settings: 14th day after application; for herbicidal effect, Barnyardgrass: foliage treatment, 1,000 g active ingredient per 1 hectare, greenhouse
# In short: (§2)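 Foliar spray on two-week-old greenhouse weeds in field soil: wettable powder formulation diluted in water, applied at 1,000 L/ha to give 1,000 g a.i./ha. Damage rated by a fixed scoring standard on day 14 after application.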
# [6] = system: slender amaranth (Amaranthus viridis L.); test: as above; settings: 14th day after application; for herbicidal effect, Slender Amaranth: foliage treatment, 1,000 g active ingredient per 1 hectare, greenhouse
# In short: as §2
# [7] = system: green foxtail (Setaria viridis (L.) P. Beauv.); test: as above; settings: 14th day after application; for herbicidal effect, Green Foxtail: foliage treatment, 1,000 g active ingredient per 1 hectare, greenhouse
# In short: as §2
# [8] = system: velvetleaf (Abutilon theophrasti medicus); test: as above; settings: 14th day after application; for herbicidal effect, Velvetleaf: foliage treatment, 1,000 g active ingredient per 1 hectare, greenhouse
# In short: as §2
# [9] = system: heartshape false pickerelweed (Monochoria vaginalis (Burm.f.) C.Presl); test: Test Example 1: herbicidal effect by soil application to paddy field; settings: for herbicidal effect, Monochoria vaginalis (Burm. f.) C. Presl: paddy field soil application, active ingredient 1,000 g per 1 hectare, wettable powder added dropwise to water surface the day after sowing, examined on the 21st day after application
# In short: (§3)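 Under greenhouse conditions, seeds sown on puddled paddy soil in 100 cm2 pots under 3 cm of standing water received the test compound; injury was assessed with a standard scoring scheme three weeks (day 21) after treatment.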
# [10] = system: Japanese bulrush (Scirpus juncoides Roxb.); test: as above; settings: for herbicidal effect, Scirpus juncoides Roxb.: paddy field soil application, active ingredient 1,000 g per 1 hectare, wettable powder added dropwise to water surface the day after sowing, examined on the 21st day after application
# In short: as §3
# [11] = system: early watergrass (Echinochloa oryzicola Vasing); test: as above; settings: for herbicidal effect, Echinochloa oryzicola Vasing: paddy field soil application, active ingredient 1,000 g per 1 hectare, wettable powder added dropwise to water surface the day after sowing, examined on the 21st day after application
# In short: as §3
# [12] = foliage treatment, plants grown two weeks, 1,000 g active ingredient per hectare
# [13] = soil application to paddy field, rated by standard of Table 34
Compound,"herbicidal effect (index), Barnyardgrass [1]","herbicidal effect (index), Slender Amaranth [2]","herbicidal effect (index), Green Foxtail [3]","herbicidal effect (index), Velvetleaf [4]","herbicidal effect, Barnyardgrass [5]","herbicidal effect, Slender Amaranth [6]","herbicidal effect, Green Foxtail [7]","herbicidal effect, Velvetleaf [8]","herbicidal effect, Monochoria vaginalis (Burm. f.) C. Presl [9]","herbicidal effect, Scirpus juncoides Roxb. [10]","herbicidal effect, Echinochloa oryzicola Vasing [11]","herbicidal effect (index), Barnyardgrass [5, 12]","herbicidal effect (index), Slender Amaranth [6, 12]","herbicidal effect (index), Green Foxtail [7, 12]","herbicidal effect (index), Velvetleaf [8, 12]","herbicidal effect (index), Monochoria vaginalis (Burm.f.) C.Presl [9, 13]","herbicidal effect (index), Scirpus juncoides Roxb. [10, 13]","herbicidal effect (index), Echinochloa oryzicola Vasing [11, 13]"
O=C1CCCC(O)=C1C(=O)c1ccc(C(F)(F)F)n(N2CCCC2)c1=O [I-177],5 (90% or more of herbicidal effect and crop phytotoxicity),5 (90% or more of herbicidal effect and crop phytotoxicity),5 (90% or more of herbicidal effect and crop phytotoxicity),5 (90% or more of herbicidal effect and crop phytotoxicity),5 (90% or more of herbicidal effect and crop phytotoxicity),5 (90% or more of herbicidal effect and crop phytotoxicity),4 (70 to less than 90% of herbicidal effect and crop phytotoxicity),5 (90% or more of herbicidal effect and crop phytotoxicity),5 (90% or more of herbicidal effect and crop phytotoxicity),5 (90% or more of herbicidal effect and crop phytotoxicity),5 (90% or more of herbicidal effect and crop phytotoxicity),,,,,,,
COc1cc(OC)cc(-n2c(C(F)(F)F)ccc(C(=O)C3=C(O)CCCC3=O)c2=O)c1 [I-101],5 (90% or more of herbicidal effect and crop phytotoxicity),5 (90% or more of herbicidal effect and crop phytotoxicity),5 (90% or more of herbicidal effect and crop phytotoxicity),5 (90% or more of herbicidal effect and crop phytotoxicity),,,,,5 (90% or more of herbicidal effect and crop phytotoxicity),5 (90% or more of herbicidal effect and crop phytotoxicity),5 (90% or more of herbicidal effect and crop phytotoxicity),5 (90% or more of herbicidal effect and crop phytotoxicity),5 (90% or more of herbicidal effect and crop phytotoxicity),5 (90% or more of herbicidal effect and crop phytotoxicity),5 (90% or more of herbicidal effect and crop phytotoxicity),,,
COCCn1c(C(F)(F)F)ccc(C(=O)C2=C(O)C(C)(C)CCC2=O)c1=O [II-29],5 (90% or more of herbicidal effect and crop phytotoxicity),5 (90% or more of herbicidal effect and crop phytotoxicity),5 (90% or more of herbicidal effect and crop phytotoxicity),5 (90% or more of herbicidal effect and crop phytotoxicity),5 (90% or more of herbicidal effect and crop phytotoxicity),5 (90% or more of herbicidal effect and crop phytotoxicity),5 (90% or more of herbicidal effect and crop phytotoxicity),5 (90% or more of herbicidal effect and crop phytotoxicity),5 (90% or more of herbicidal effect and crop phytotoxicity),5 (90% or more of herbicidal effect and crop phytotoxicity),5 (90% or more of herbicidal effect and crop phytotoxicity),,,,,,,
Cn1ncc(C(=O)c2ccc(C(F)(F)F)n(C3CCCC3)c2=O)c1O [IV-21],3 (50 to less than 70% of herbicidal effect and crop phytotoxicity),5 (90% or more of herbicidal effect and crop phytotoxicity),5 (90% or more of herbicidal effect and crop phytotoxicity),5 (90% or more of herbicidal effect and crop phytotoxicity),5 (90% or more of herbicidal effect and crop phytotoxicity),5 (90% or more of herbicidal effect and crop phytotoxicity),4 (70 to less than 90% of herbicidal effect and crop phytotoxicity),5 (90% or more of herbicidal effect and crop phytotoxicity),5 (90% or more of herbicidal effect and crop phytotoxicity),5 (90% or more of herbicidal effect and crop phytotoxicity),5 (90% or more of herbicidal effect and crop phytotoxicity),,,,,,,
COCC(C)n1c(C(F)(F)F)ccc(C(=O)C2=C(O)C3CCC(C3)C2=O)c1=O (centres unmarked) [III-21],5 (90% or more of herbicidal effect and crop phytotoxicity),5 (90% or more of herbicidal effect and crop phytotoxicity),5 (90% or more of herbicidal effect and crop phytotoxicity),5 (90% or more of herbicidal effect and crop phytotoxicity),5 (90% or more of herbicidal effect and crop phytotoxicity),5 (90% or more of herbicidal effect and crop phytotoxicity),5 (90% or more of herbicidal effect and crop phytotoxicity),5 (90% or more of herbicidal effect and crop phytotoxicity),5 (90% or more of herbicidal effect and crop phytotoxicity),5 (90% or more of herbicidal effect and crop phytotoxicity),5 (90% or more of herbicidal effect and crop phytotoxicity),,,,,,,
O=C(C1=C(O)C2CCC(C2)C1=O)c1ccc(C(F)(F)F)n(C2CCCC2)c1=O (centres unmarked) [III-11],4 (70 to less than 90% of herbicidal effect and crop phytotoxicity),5 (90% or more of herbicidal effect and crop phytotoxicity),4 (70 to less than 90% of herbicidal effect and crop phytotoxicity),5 (90% or more of herbicidal effect and crop phytotoxicity),5 (90% or more of herbicidal effect and crop phytotoxicity),5 (90% or more of herbicidal effect and crop phytotoxicity),5 (90% or more of herbicidal effect and crop phytotoxicity),5 (90% or more of herbicidal effect and crop phytotoxicity),5 (90% or more of herbicidal effect and crop phytotoxicity),5 (90% or more of herbicidal effect and crop phytotoxicity),5 (90% or more of herbicidal effect and crop phytotoxicity),,,,,,,
"O=C1CCCC(O)=C1C(=O)c1cnccn1 [Comparative Compound 1, reference compound]",1 (10 to less than 30% of herbicidal effect and crop phytotoxicity),0 (0 to less than 10% of herbicidal effect and crop phytotoxicity),1 (10 to less than 30% of herbicidal effect and crop phytotoxicity),1 (10 to less than 30% of herbicidal effect and crop phytotoxicity),0 (0 to less than 10% of herbicidal effect and crop phytotoxicity),1 (10 to less than 30% of herbicidal effect and crop phytotoxicity),0 (0 to less than 10% of herbicidal effect and crop phytotoxicity),2 (30 to less than 50% of herbicidal effect and crop phytotoxicity),,,,,,,,0 (0 to less than 10% of herbicidal effect and crop phytotoxicity),0 (0 to less than 10% of herbicidal effect and crop phytotoxicity),1 (10 to less than 30% of herbicidal effect and crop phytotoxicity)
